Data on 21 compounds can be found in US20200247800A1, “SUBSTITUTED BICYCLIC HETEROCYCLIC COMPOUNDS AS NADPH OXIDASE INHIBITORS” (Glenmark Pharmaceuticals S.A., priority 2017, published 2020).

What is called inhibition is the relative decrease from the control value, in per cent. One may read the IC50 as the concentration that inhibits the measured activity by half. A low value points to higher potency.

SMILES strings stand for the structures. Counter-ions that a name gives are not always drawn.

The target in the experiment is T1, human NOX4 (Homo sapiens, UniProt Q9NPH5).
T1 construct: expressed in transfected cells; membrane fraction used
T1 sequence (Q9NPH5 1-578): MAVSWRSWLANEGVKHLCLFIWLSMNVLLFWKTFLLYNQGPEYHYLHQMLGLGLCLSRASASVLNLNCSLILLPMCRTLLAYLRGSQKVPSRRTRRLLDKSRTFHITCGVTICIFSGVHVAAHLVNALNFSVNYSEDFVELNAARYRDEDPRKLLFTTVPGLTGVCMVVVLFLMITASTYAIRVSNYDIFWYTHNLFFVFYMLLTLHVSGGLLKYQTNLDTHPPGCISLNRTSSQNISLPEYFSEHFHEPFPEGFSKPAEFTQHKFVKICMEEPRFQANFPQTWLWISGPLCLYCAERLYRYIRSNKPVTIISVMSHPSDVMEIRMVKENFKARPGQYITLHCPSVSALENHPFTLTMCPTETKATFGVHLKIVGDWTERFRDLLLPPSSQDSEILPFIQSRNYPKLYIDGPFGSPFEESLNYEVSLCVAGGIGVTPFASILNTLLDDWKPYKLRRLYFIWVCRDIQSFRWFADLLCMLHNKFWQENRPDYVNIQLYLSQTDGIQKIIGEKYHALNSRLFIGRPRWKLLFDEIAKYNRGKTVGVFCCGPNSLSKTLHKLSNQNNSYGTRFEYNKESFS
T1 sequence (P13498 1-195 partner): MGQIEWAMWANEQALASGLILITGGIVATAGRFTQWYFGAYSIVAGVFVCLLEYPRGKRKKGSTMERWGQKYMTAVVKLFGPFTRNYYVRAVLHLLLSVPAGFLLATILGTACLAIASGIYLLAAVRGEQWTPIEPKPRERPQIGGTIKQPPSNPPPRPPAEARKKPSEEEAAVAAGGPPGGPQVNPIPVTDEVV
The experiment is described as follows: Cell free membrane based in vitro NOX4 assay: H2O2 production by membranes expressing human NOX4, measured with Amplex Red. In kind it is biochemical. The conditions noted are these: for inhibition at 1 µM: 1.0 μM compound, read-out: Percentage inhibition at 1.0 μM; for inhibition at 10 µM: 10.0 μM compound, read-out: Percentage inhibition at 10.0 μM; for IC50: class symbols. As to the method: The inhibition of NOX4 activity was measured as inhibition of formation of reactive oxygen species (ROS) from oxygen in cell free assays. […] A cell free membrane based in vitro assay was developed by preparing membranes from cells stably overexpressing human NOX4. hNOX4/HEK stable cell line was generated in-house for this purpose. Membranes from stably transfected cells overexpressing human NOX4 were prepared by homogenizing the cells in buffer (20 mM HEPES, 1 mM EGTA, 0.5 mM DTT, 0.5% protease inhibitor cocktail, 1 mM PMSF, pH 7.6), followed by centrifugation at 160000 g for 30 min. Membrane fraction (pellet) was resuspended in storage buffer (homogenization buffer with 10% glycerol and 100 mM NaCl) and stored at −80° C. Protein concentration was determined by Bradford reagent. H202 production by membranes expressing human NOX4 was measured using Amplex Red (Invitrogen) by following a slightly modified version of the manufacturer's instruction manual. Briefly, membranes were incubated in assay buffer (25 mM HEPES, 0.12 M NaCl, 3 mM KCl, 1 mM MgCl2, pH 7.4) with Horse Radish Peroxidase (HRP) and Amplex Red. Reaction was started by addition of […] to the membrane mix. Antagonism of NOX4 inhibitors was measured by incubating the membrane with increasing concentrations of the inhibitors for 20 min on a plate shaker prior to addition of NADPH. H2O2 levels were measured for 10 min in a BMG Fluostar microplate reader with excitation and emission wavelengths of 544 nm and 590 nm respectively. Concentration response curves were plotted as a % of maximal response obtained in the absence of the inhibitor. IC50 value was calculated from concentration response curve by nonlinear regression analysis using GraphPad PRISM software.

In the case of `Cn1nc(C(F)(F)F)c2c(=O)c(O)c(-c3ccc(F)cc3Cl)[nH]c21` [Example 44, 6-(2-Chloro-4-fluorophenyl)-5-hydroxy-1-methyl-3-(trifluoromethyl)-1,7-dihydro-4H pyrazolo[3,4-b]pyridin-4-one], the inhibition at 1 µM is 84.6%, the inhibition at 10 µM was 100% and the IC50 was > 150 nM.
Taken in the same sequence, the figures for `Cn1nc(C(F)(F)F)c2c(=O)c(O)c(-c3c(F)cccc3Cl)[nH]c21` [Example 45, 6-(2-Chloro-6-fluorophenyl)-5-hydroxy-1-methyl-3-(trifluoromethyl)-1,7-dihydro-4H-pyrazolo[3,4-b]pyridin-4-one] were 89.1%, 98.6% and 100 to 150 nM.
Taken in the same sequence, the figures for `Cn1nc(C(F)(F)F)c2c(=O)c(O)c(-c3ccncc3Cl)[nH]c21` [Example 46, 6-(3-Chloropyridin-4-yl)-5-hydroxy-1-methyl-3-(trifluoromethyl)-1,7-dihydro-4H-pyrazolo[3,4-b]pyridin-4-one hydrochloride] were 73.6%, 100% and 100 to 150 nM.
Taken in the same sequence, the figures for `COc1ccc(-c2[nH]c3c(c(C(F)(F)F)nn3C)c(=O)c2O)c(F)c1` [Example 47, 6-(2-Fluoro-4-methoxyphenyl)-5-hydroxy-1-methyl-3-(trifluoromethyl)-1,7-dihydro-4H-pyrazolo[3,4-b]pyridin-4-one] were 100%, 100% and 50 to 100 nM.
For `COc1ccc(-c2[nH]c3c(c(C(F)(F)F)nn3C)c(=O)c2O)c(Cl)c1` [Example 48, 6-(2-Chloro-4-methoxyphenyl)-5-hydroxy-1-methyl-3-(trifluoromethyl)-1,7-dihydro-4H-pyrazolo[3,4-b]pyridin-4-one], the inhibition at 1 µM stood at 84.2%, the inhibition at 10 µM was determined as 98.3% and the IC50 lay in the range of 100 to 150 nM.
Taken in the same sequence, the figures for `COc1ccc(Cl)c(-c2[nH]c3c(c(C(F)(F)F)nn3C)c(=O)c2O)c1` [Example 49, 6-(2-Chloro-5-methoxyphenyl)-5-hydroxy-1-methyl-3-(trifluoromethyl)-1,7-dihydro-4H-pyrazolo[3,4-b]pyridin-4-one] were 100%, 100% and > 150 nM.
Taken in the same sequence, the figures for `Cn1nc(C(F)(F)F)c2c(=O)c(O)c(-c3cc(Cl)ccc3Cl)[nH]c21` [Example 50, 6-(2,5-Dichlorophenyl)-5-hydroxy-1-methyl-3-(trifluoromethyl)-1,7-dihydro-4H-pyrazolo[3,4-b]pyridin-4-one] were 89.3%, 99.5% and 100 to 150 nM.
Taken in the same sequence, the figures for `COc1ccc(-c2[nH]c3c(c(C(F)(F)F)nn3C)c(=O)c2O)c(OC)c1` [Example 51, 6-(2,4-Dimethoxyphenyl)-5-hydroxy-1-methyl-3-(trifluoromethyl)-1,7-dihydro-4H-pyrazolo[3,4-b]pyridin-4-one] were 74.4%, 86.5% and > 150 nM.
Consider `Cn1nc(C(F)(F)F)c2c(=O)c(O)c(-c3ccc(Cl)cc3F)[nH]c21` [Example 52, 6-(4-Chloro-2-fluorophenyl)-5-hydroxy-1-methyl-3-(trifluoromethyl)-1,7-dihydro-4H-pyrazolo[3,4-b]pyridin-4-one], for which the inhibition at 1 µM was 75.8%, the inhibition at 10 µM came out at 94.9% and the IC50 is > 150 nM.
Taken in the same sequence, the figures for `COc1ccc(-c2[nH]c3c(c(C(F)(F)F)nn3C)c(=O)c2O)cc1` [Example 53, 5-Hydroxy-6-(4-methoxyphenyl)-1-methyl-3-(trifluoromethyl)-1,7-dihydro-4H-pyrazolo[3,4-b]pyridin-4-one] were 90.5%, 84.6% and 100 to 150 nM.
As to `Cn1nc(C(F)(F)F)c2c(=O)c(O)c(-c3ccc(-n4ccnc4)cc3)[nH]c21` [Example 54, 5-Hydroxy-6-[4-(1H-imidazol-1-yl)phenyl]-1-methyl-3-(trifluoromethyl)-1,7-dihydro-4H-pyrazolo[3,4-b]pyridin-4-one], the inhibition at 1 µM is 92.1%, the inhibition at 10 µM turned out to be 94.5% and the IC50 is 100 to 150 nM.
Taken in the same sequence, the figures for `Cn1nc(C(F)(F)F)c2c(=O)c(O)c(-c3ccncc3)[nH]c21` [Example 55, 5-Hydroxy-1-methyl-6-(pyridin-4-yl)-3-(trifluoromethyl)-1,7-dihydro-4H-pyrazolo[3,4-b]pyridin-4-one] were 83.8%, 94.2% and > 150 nM.
Taken in the same sequence, the figures for `CCc1nn(C)c2[nH]c(-c3ccccc3Cl)c(O)c(=O)c12` [Example 56, 6-(2-Chlorophenyl)-3-ethyl-5-hydroxy-1-methyl-1,7-dihydro-4H-pyrazolo[3,4-b]pyridin-4-one] were 82.4%, 69.8% and < 50 nM.
With `Cn1nc2[nH]c(-c3ccccc3Cl)c(O)c(=O)c2c1Cc1ccccc1F` [Example 57, 6-(2-Chlorophenyl)-3-(2-fluorobenzyl)-5-hydroxy-2-methyl-2,7-dihydro-4H-pyrazolo[3,4-b]pyridin-4-one], the inhibition at 1 µM came out at 21.9% and the inhibition at 10 µM is 13.5%.
Taken in the same sequence, the figures for `Cn1nc2[nH]c(-c3ccccc3Cl)c(O)c(=O)c2c1-c1ccc(F)cc1` [Example 58, 6-(2-Chlorophenyl)-3-(4-fluorophenyl)-5-hydroxy-2-methyl-2,7-dihydro-4H-pyrazolo[3,4-b]pyridin-4-one] were 36.7% and 51.2%.
Taken in the same sequence, the figures for `Cc1c2c(=O)c(O)c(-c3ccccc3Cl)[nH]c2nn1C` [Example 59, 6-(2-Chlorophenyl)-5-hydroxy-2,3-dimethyl-2,7-dihydro-4H-pyrazolo[3,4-b]pyridin-4-one] were 41.1% and 38.8%.
`Cc1cc2c(=O)c(O)c(-c3ccccc3Cl)[nH]c2s1` [Example 60, 6-(2-Chlorophenyl)-5-hydroxy-2-methylthieno[2,3-b]pyridin-4(7H)-one]: the inhibition at 1 µM turned out to be 77%, the inhibition at 10 µM came to 100% and the IC50 is > 150 nM.
Taken in the same sequence, the figures for `Cc1cc2c(=O)c(O)c(-c3ccc(F)c(C(F)(F)F)c3)[nH]c2s1` [Example 61, 6-[4-Fluoro-3-(trifluoromethyl)phenyl]-5-hydroxy-2-methylthieno[2,3-b]pyridin-4(7H)-one] were 100%, 100% and 50 to 100 nM.
On to `Cc1nc2c(=O)c(O)c(-c3ccccc3Cl)[nH]c2s1` [Example 62, 5-(2-Chlorophenyl)-6-hydroxy-2-methyl[1,3]thiazolo[5,4-b]pyridin-7(4H)-one], for which the inhibition at 1 µM is 39%, the inhibition at 10 µM worked out at 98% and the 50% inhibitory concentration (IC50) is > 150 nM.
Regarding `O=c1c(O)c(-c2ccccc2Cl)[nH]c2sc(C(F)(F)F)nc12` [Example 63, 5-(2-Chlorophenyl)-6-hydroxy-2-trifluoromethyl[1,3]thiazolo[5,4-b]pyridin-7(4H)-one], the inhibition at 1 µM was found to be 58.6%, the inhibition at 10 µM amounted to 100% and the IC50 is > 150 nM.
Taken in the same sequence, the figures for `Cc1noc2[nH]c(-c3ccccc3Cl)c(O)c(=O)c12` [Example 64, 6-(2-Chlorophenyl)-5-hydroxy-3-methyl[1,2]oxazolo[5,4-b]pyridin-4(7H)-one] were 68.8%, 100% and > 150 nM.
